Test: Solubility of FDCA for a given temperature and solvent
Assay type: physicochemical
Conditions: for Solubility at T, wt % in solvent / Solubility at temp., wt % in solvent: estimated FDCA solubility
From the text: The skilled person can adjust the thermal treatment conditions to the required degree of dissolution, wherein the following table can be used that lists values for the solubility of FDCA at a given temperature depending on the solvent composition employed. […] Intermediate values can be obtained by interpolation.
For a better understanding, the estimated FDCA solubility in the given solvent at the process temperature is provided as well.

O=C(O)c1ccc(C(=O)O)o1 [FDCA, 2,5-Furandicarboxylic acid]
Solubility of FDCA (HAc:Water 0:100 by weight, 140° C.): 7.0 wt %
Solubility of FDCA (HAc:Water 0:100 by weight, 150° C.): 9.2 wt %
Solubility of FDCA (HAc:Water 0:100 by weight, 160° C.): 11.7 wt %
Solubility of FDCA (HAc:Water 0:100 by weight, 170° C.): 14.8 wt %
Solubility of FDCA (HAc:Water 0:100 by weight, 180° C.): 18.4 wt %
Solubility of FDCA (HAc:Water 0:100 by weight, 190° C.): 22.4 wt %
Solubility of FDCA (HAc:Water 0:100 by weight, 200° C.): 26.8 wt %
Solubility of FDCA (HAc:Water 10:90 by weight, 140° C.): 7.7 wt %
Solubility of FDCA (HAc:Water 10:90 by weight, 150° C.): 9.9 wt %
Solubility of FDCA (HAc:Water 10:90 by weight, 160° C.): 12.6 wt %
Solubility of FDCA (HAc:Water 10:90 by weight, 170° C.): 15.6 wt %
Solubility of FDCA (HAc:Water 10:90 by weight, 180° C.): 19.2 wt %
Solubility of FDCA (HAc:Water 10:90 by weight, 190° C.): 23.1 wt %
Solubility of FDCA (HAc:Water 10:90 by weight, 200° C.): 27.4 wt %
Solubility of FDCA (HAc:Water 20:80 by weight, 140° C.): 8.3 wt %
Solubility of FDCA (HAc:Water 20:80 by weight, 150° C.): 10.6 wt %
Solubility of FDCA (HAc:Water 20:80 by weight, 160° C.): 13.3 wt %
Solubility of FDCA (HAc:Water 20:80 by weight, 170° C.): 16.3 wt %
Solubility of FDCA (HAc:Water 20:80 by weight, 180° C.): 19.8 wt %
Solubility of FDCA (HAc:Water 20:80 by weight, 190° C.): 23.7 wt %
Solubility of FDCA (HAc:Water 20:80 by weight, 200° C.): 27.8 wt %
Solubility of FDCA (HAc:Water 30:70 by weight, 140° C.): 8.9 wt %
Solubility of FDCA (HAc:Water 30:70 by weight, 150° C.): 11.1 wt %
Solubility of FDCA (HAc:Water 30:70 by weight, 160° C.): 13.8 wt %
Solubility of FDCA (HAc:Water 30:70 by weight, 170° C.): 16.8 wt %
Solubility of FDCA (HAc:Water 30:70 by weight, 180° C.): 20.1 wt %
Solubility of FDCA (HAc:Water 30:70 by weight, 190° C.): 23.8 wt %
Solubility of FDCA (HAc:Water 30:70 by weight, 200° C.): 27.8 wt %
Solubility of FDCA (HAc:Water 40:60 by weight, 140° C.): 9.1 wt %
Solubility of FDCA (HAc:Water 40:60 by weight, 150° C.): 11.3 wt %
Solubility of FDCA (HAc:Water 40:60 by weight, 160° C.): 13.9 wt %
Solubility of FDCA (HAc:Water 40:60 by weight, 170° C.): 16.7 wt %
Solubility of FDCA (HAc:Water 40:60 by weight, 180° C.): 19.9 wt %
Solubility of FDCA (HAc:Water 40:60 by weight, 190° C.): 23.4 wt %
Solubility of FDCA (HAc:Water 40:60 by weight, 200° C.): 27.1 wt %
Solubility of FDCA (HAc:Water 50:50 by weight, 140° C.): 9.0 wt %
Solubility of FDCA (HAc:Water 50:50 by weight, 150° C.): 11.0 wt %
Solubility of FDCA (HAc:Water 50:50 by weight, 160° C.): 13.4 wt %
Solubility of FDCA (HAc:Water 50:50 by weight, 170° C.): 16.0 wt %
Solubility of FDCA (HAc:Water 50:50 by weight, 180° C.): 19.0 wt %
Solubility of FDCA (HAc:Water 50:50 by weight, 190° C.): 22.1 wt %
Solubility of FDCA (HAc:Water 50:50 by weight, 200° C.): 25.6 wt %
Solubility of FDCA (HAc:Water 60:40 by weight, 140° C.): 8.2 wt %
Solubility of FDCA (HAc:Water 60:40 by weight, 150° C.): 10.0 wt %
Solubility of FDCA (HAc:Water 60:40 by weight, 160° C.): 12.1 wt %
Solubility of FDCA (HAc:Water 60:40 by weight, 170° C.): 14.5 wt %
Solubility of FDCA (HAc:Water 60:40 by weight, 180° C.): 17.0 wt %
Solubility of FDCA (HAc:Water 60:40 by weight, 190° C.): 19.9 wt %
Solubility of FDCA (HAc:Water 60:40 by weight, 200° C.): 22.9 wt %
Solubility of FDCA (HAc:Water 70:30 by weight, 140° C.): 6.8 wt %
Solubility of FDCA (HAc:Water 70:30 by weight, 150° C.): 8.3 wt %
Solubility of FDCA (HAc:Water 70:30 by weight, 160° C.): 10.0 wt %
Solubility of FDCA (HAc:Water 70:30 by weight, 170° C.): 12.0 wt %
Solubility of FDCA (HAc:Water 70:30 by weight, 180° C.): 14.2 wt %
Solubility of FDCA (HAc:Water 70:30 by weight, 190° C.): 16.6 wt %
Solubility of FDCA (HAc:Water 70:30 by weight, 200° C.): 19.2 wt %
Solubility of FDCA (HAc:Water 80:20 by weight, 140° C.): 4.9 wt %
Solubility of FDCA (HAc:Water 80:20 by weight, 150° C.): 6.1 wt %
Solubility of FDCA (HAc:Water 80:20 by weight, 160° C.): 7.5 wt %
Solubility of FDCA (HAc:Water 80:20 by weight, 170° C.): 9.1 wt %
Solubility of FDCA (HAc:Water 80:20 by weight, 180° C.): 10.9 wt %
Solubility of FDCA (HAc:Water 80:20 by weight, 190° C.): 12.9 wt %
Solubility of FDCA (HAc:Water 80:20 by weight, 200° C.): 15.1 wt %
Solubility of FDCA (HAc:Water 90:10 by weight, 140° C.): 3.5 wt %
Solubility of FDCA (HAc:Water 90:10 by weight, 150° C.): 4.5 wt %
Solubility of FDCA (HAc:Water 90:10 by weight, 160° C.): 5.6 wt %
Solubility of FDCA (HAc:Water 90:10 by weight, 170° C.): 7.0 wt %
Solubility of FDCA (HAc:Water 90:10 by weight, 180° C.): 8.7 wt %
Solubility of FDCA (HAc:Water 90:10 by weight, 190° C.): 10.6 wt %
Solubility of FDCA (HAc:Water 90:10 by weight, 200° C.): 12.8 wt %
Solubility of FDCA (HAc:Water 95:5 by weight, 140° C.): 3.3 wt %
Solubility of FDCA (HAc:Water 95:5 by weight, 150° C.): 4.4 wt %
Solubility of FDCA (HAc:Water 95:5 by weight, 160° C.): 5.7 wt %
Solubility of FDCA (HAc:Water 95:5 by weight, 170° C.): 7.3 wt %
Solubility of FDCA (HAc:Water 95:5 by weight, 180° C.): 9.3 wt %
Solubility of FDCA (HAc:Water 95:5 by weight, 190° C.): 11.6 wt %
Solubility of FDCA (HAc:Water 95:5 by weight, 200° C.): 14.3 wt %
Solubility at T, wt % in solvent (HAc:Water 0:100, 130° C. (test Comp. 4)): 5.3 wt % in solvent
Solubility at temp., wt % in solvent (HAc:Water 0:100, 180° C. (test Ex. 3)): 18.4 wt % in solvent
Solubility at T, wt % in solvent (HAc:Water 70:30, 125° C. (test Comp. 3)): 6.1 wt % in solvent
Solubility at temp., wt % in solvent (HAc:Water 70:30, 180° C. (tests Ex. 1, Ex. 2)): 14.2 wt % in solvent
